Data taken from paper PMC6269846, “Pyrrolizidine Alkaloids and Fatty Acids from the Endemic Plant Species Rindera umbellata and the Effect of Lindelofine-N-oxide on Tubulin Polymerization” (Molecules, 2013).

What was measured:
tubulin [1] = system: T1, tubulin; experiment: turbidimetric tubulin polymerization assay (absorbance at […] nm); format: biochemical, Bos taurus
T1 construct: tubulin isolated from bovine brain (α/β heterodimer); with α-tubulin/β-tubulin heterodimer

tubulin [2] = system: T1, tubulin; experiment: turbidimetric tubulin polymerization assay (absorbance at […] nm), positive control; format: biochemical, Bos taurus

In the case of `CC(C)[C@@](O)(C(=O)OC[C@@H]1CC[N+]2([O-])CCC[C@H]12)[C@@H](C)O` (stereo partly drawn) [compound 7, (2S,3R)-((1R,7aR)-hexahydro-1H-pyrrolizin-1-yl)methyl2,3-dihydroxy-2-isopropylbutanoate-N-oxide], the IC50 (tubulin [1]) is reported as 91 µM.

For `CC(=O)O[C@H]1C(=O)[C@@]2(C)[C@H]([C@H](OC(=O)c3ccccc3)[C@]3(O)C[C@H](OC(=O)[C@H](O)[C@@H](NC(=O)c4ccccc4)c4ccccc4)C(C)=C1C3(C)C)[C@]1(OC(C)=O)CO[C@@H]1C[C@@H]2O` [paclitaxel], the IC50 (tubulin [2]) was 2.4 µM.
